Assays:
PP2A A-C dimer = target: T1, PP2A A-C dimer (Homo sapiens, UniProt P67775); assay: Phosphopeptide / malachite green assay with purified PP2A; type: biochemical
T1 construct: purified PP2A A-C dimer purified from human red blood cells; purchased Upstate 14-111 (lot #28002); host or cells: human red blood cells (native purification)
Description: The amount of inorganic phosphate released by enzymatic activity was determined by the addition of malachite green, and absorbance read at 590 nm. Malachite green forms a stable green complex in the presence of molybdate and orthophosphate, allowing the concentration of inorganic phosphate present to be measured. Data is presented as mean absorbance at 590 nm from at least three independent experiments, ±SEM.
(§1) 1 mg of synthetic phosphopeptides K-R-pT-I-R-R (Upstate #12-219) and R-R-A-pS-V-A (Upstate #12-220) were dissolved in 1.10-1.285 ml of dH2O to prepare a 1 mM solution, then aliquoted and stored at −20° C. until use. 0.01-0.05 U of purified PP2A A-C dimer purified from human red blood cells, or 0.05 U of rabbit PP1 purified from skeletal muscle was mixed with 500 μM of phosphopeptide and incubated in the presence of various treatments as indicated at 37° C. on a heating block for 15 min. Each reaction was made up to a total volume of 25 μl with pNPP buffer (50 mM Tris-HCl, pH 7.0, 100 μM CaCl2). The enzyme reaction was terminated by adding 100 μl of malachite green solution (0.034% malachite green in 10 mM ammonium molybdate, 1 N HCl, 3.4% ethanol, 0.01% Tween-20). Malachite green forms a stable green complex in the presence of molybdate and orthophosphate, allowing the amount of inorganic phosphate present to be measured. Absorbance was read in duplicate for each sample at 590 nm.

human TAU441 = conditions: TMHT mice
Description: (§2) This was done every Monday, Wednesday and Friday, and the water was weighed on exchange to measure consumption.
After blood sampling transgenic mice were intracardially perfused with 0.9% sodium chloride. Brains were rapidly removed, and the right half was immersion fixed for 24 hours in freshly prepared 4% Paraformaldehyde and embedded in paraffin for histological investigations. The left hemisphere was frozen on dry ice and stored at −80° C. for possible later biochemical analysis.
In initially nine (9) brain hemispheres (≧3 per Tg animal group) histological evaluations were performed to qualitative and quantitative evaluate TAU pathology.
Fifteen (15) coronal consecutive sections (Leica SM 2000R) were cut (5 μm thick) at each of 5 different brain layers between Bregma −1.82 and −1.34 mm, which were chosen according to the morphology atlas “The Mouse Brain” from Paxinos and Franklin (2 ^d edition), for Gallyas staining and for determination TAU pathology with specific antibodies (AT180 and HT7). Tissues of all transgenic animals investigated were handled in exactly the same way to avoid bias due to variation of this procedure. Remaining brain hemispheres or tissue not used are saved and stored until the sponsor has decided to how to proceed or until end of the study.
TAU depositions were determined using the monoclonal TAU-antibodies AT180 and HT7 (Pierce Endogen®).
Five (5) μm thick coronal paraffin sections from each of the five different layers were stained with the above described monoclonal mouse anti-human TAU-antibodies (AT180—1:100; HT7—1:1000) and visualized using a secondary anti-mouse Cy3 (1:500, Jackson Laboratories®). The detailed staining protocols are set out below:
AT180 incubation protocol for the determination of human PHF-TAU depositions • 1.) Deparaffinize and hydrate tissue sections through Tissue Clear (Sakura®) and graded alcohol (Merck®) series. • 2.) Wash for 2 minutes in Aqua bidest (Fresenius-Kabi®) • 3.) Place tissue sections for antigen unmasking in 10% citrate buffer (Labvision®) for 15 minutes at 95° C. in a steamer and to cool down for 15 minutes at room temperature. • 4.) Wash sections for 2×5 minutes in PBS. • 5.) Block endogenous peroxidase with 1% hydrogen peroxide (Linaris®) in methanol (Merck®) for 10 minutes at room temperature. • 6.) Wash sections for 2×5 minutes in PBS. • 7.) Block unspecific bindings with MOM-Blocking Reagent (Vector®) for 60 minutes at room temperature in a damp chamber. • 8.) Wash sections for 2×5 minutes in PBS. • 9.) Block unspecific bindings with MOM-Diluent (Vector®) for 5 minutes at room temperature. • 10.) Incubate with AT180 (Pierce Endogen®; 1:100 in MOM-Diluent) for 60 minutes at room temperature in a damp chamber. • 11.) Wash sections for 3×5 minutes in PBS. • 12.) Block unspecific bindings with 10% Non-Immune Goat-Normal Serum (Dako®) for 10 minutes at room temperature in a damp chamber. • 13.) Wash sections for 2×5 minutes in PBS. • 14.) Incubate with Cy 3 Goat Anti-Mouse (Jackson®; 1:500 in MOM-Diluent) for 60 minutes at room temperature in a damp chamber. • 15.) Wash sections for 5 minutes in PBS. • 16.) Wash sections for 5 minutes in Aqua bidest. • 17.) Cover sections with Moviol and coverslips.

[1] = test system: PC3 prostate carcinoma cells; assay: Intracellular redox state assay (DCFDA, flow cytometry); conditions: 1 h, sodium selenate 500 μM, NAC 1 mM
Description: 1×10^6 PC3 prostate carcinoma cells were plated in 60 mm dishes, allowed to attach for 8 h, and serum starved overnight. Cells were incubated with DCFDA 5 μM for 15 min prior to treatment.
The proportion of fluorescent cells was then determined by flow cytometry.
Intracellular redox state was determined using 2′,7′-dichlorodihydrofluorescein diacetate (DCFDA). […] Cells were equilibrated with 5 μM of DCFDA for 15 min prior to various treatments. Adherent cells were then harvested, washed twice with PBS and the proportion of fluorescent cells determined immediately by flow cytometry.

rabbit PP1 = conditions: 0.05 U PP1, 500 μM phospho-threonine peptide, 15 min at 37° C., 50 μM sodium selenate
Description: as §1

GSK-3β = GSK-3β Ser9 phosphorylation by immunoblot in PC3 cells; type: cell-based, human
Source text: The metabolic effects of insulin on glycogen synthesis are mediated by glycogen synthase kinase-3 (GSK-3), a direct downstream substrate of Akt. GSK-3 is a ubiquitously expressed serine/threonine kinase that phosphorylates and inactivates glycogen synthase. In response to activation of the insulin receptor, Akt phosphorylates and inactivates the repressor GSK-3, thereby stimulating glycogen synthesis [Cross et al., 1995]. […] Resolved whole cell lysates were subjected to immunoblot analysis with an antibody that specifically recognizes GSK-3β only when phosphorylated at Ser9, a site critical for its kinase activity, and comparison made with the cytoskeletal protein β-tubulin as a loading control.

[2] = test system: TAU441 transgenic (Tg) TMHT mice
Source text: as §2

PP2A = target: T2, PP2A (Homo sapiens, UniProt P67775); assay: PP2A immunoprecipitation from treated PC3 cells and phosphatase assay; type: cell-based; conditions: PC3 cells treated 1 hour; sodium selenate 500 μM, endothall A 100 μM
T2 construct: the phosphatase activity of the general pool of intracellular PP2A; endogenous in cells; host or cells: PC3 prostate carcinoma cells
T2 sequence (P67775 whole entry): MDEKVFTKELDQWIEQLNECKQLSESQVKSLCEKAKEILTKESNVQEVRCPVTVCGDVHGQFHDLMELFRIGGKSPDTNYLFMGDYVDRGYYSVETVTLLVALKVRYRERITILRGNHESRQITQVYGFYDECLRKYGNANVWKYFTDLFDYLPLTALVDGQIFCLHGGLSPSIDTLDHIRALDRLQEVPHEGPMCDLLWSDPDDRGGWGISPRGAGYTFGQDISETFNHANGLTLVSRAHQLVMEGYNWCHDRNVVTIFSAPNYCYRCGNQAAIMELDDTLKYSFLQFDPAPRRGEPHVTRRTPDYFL
T2 sequence (P30153 2-589 partner limits assumed): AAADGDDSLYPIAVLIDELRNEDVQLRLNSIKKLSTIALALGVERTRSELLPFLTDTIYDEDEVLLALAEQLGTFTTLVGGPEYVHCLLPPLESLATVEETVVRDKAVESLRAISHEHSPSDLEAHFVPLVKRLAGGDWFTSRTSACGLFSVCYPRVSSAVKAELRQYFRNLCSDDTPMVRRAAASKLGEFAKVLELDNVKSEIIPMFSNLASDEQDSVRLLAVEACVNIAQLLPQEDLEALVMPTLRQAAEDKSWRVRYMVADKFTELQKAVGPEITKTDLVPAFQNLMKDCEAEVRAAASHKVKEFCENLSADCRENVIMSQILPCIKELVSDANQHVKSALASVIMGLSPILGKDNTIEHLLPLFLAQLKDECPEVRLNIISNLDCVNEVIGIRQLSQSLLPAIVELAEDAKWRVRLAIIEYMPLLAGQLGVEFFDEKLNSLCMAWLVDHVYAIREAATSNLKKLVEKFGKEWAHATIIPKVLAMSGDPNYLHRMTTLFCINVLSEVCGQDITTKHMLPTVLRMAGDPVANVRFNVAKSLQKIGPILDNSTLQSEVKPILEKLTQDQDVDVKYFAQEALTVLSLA
Description: Free phosphate was removed by passing cell lysates through desalting columns, and measured phosphatase activity using a phosphor-serine peptide and malachite green.
1×10^6 PC3 cells were plated in 60 mm plates and allowed attach for 8 h, then serum starved over night. Following various treatments as indicated, the media was aspirated and cells washed once with TBS. Cells were lysed in 0.3 ml of lysis buffer (20 mM Tris-HCl, pH 7.0, 1% Igepal-CA, 2 mM EDTA, 2 mM EGTA, 1× Complete Protease Inhibitor Cocktail) and phosphates removed by passing the lysate through a 2 ml Zeba Desalt Spin Column (Pierce #89890). Protein concentration of the desalted lysate was determined by the BCA assay as previously described. 100-150 μg of total protein was immunoprecipitated with 4 μg of anti-PP2A monoclonal antibody and 30 μl of Protein A-sepharose slurry at 4° C. for 2 h. Samples were then pelleted at 14,000 rpm for 1 min, washed three times in excess TBS and once with pNPP assay buffer. After the final spin all of the supernatant was carefully removed and 500 μM of phosphor-threonine peptide in a final volume of 80 μl added to the beads. Samples were incubated at 30° C. for 10 min with agitation, and the reaction terminated by the addition of malachite green solution. Absorbance was read at 590 nm for each sample in duplicate.

T1 sequence (P67775 whole entry): as the sequence (P67775 whole entry) above
T1 sequence (P30153 2-589 partner limits assumed): as the sequence (P30153 2-589 partner limits assumed) above

In the case of `O=[Se](=O)(O)O` [sodium selenate], the “PP2A phosphatase activity, serine phosphopeptide as substrate” value (PP2A A-C dimer; 50 μM of each selenium compound) is reported as “clear boost in phosphatase activity”, the “inorganic phosphate released from phosphopeptide by PP2A” value (PP2A A-C dimer; 0.01-0.05 U PP2A, 500 μM phosphopeptide, 15 min at 37° C., 50 μM sodium selenate) is reported as “more than doubled” and the “percentage of relative TAU area in the Amygdala (AT180), versus untreated baseline” value (human TAU441) is reported as “not versus untreated baseline group”. For the same molecule, the “percentage of relative HT7-TAU area in the hippocampus” value (human TAU441; 1.2 mg, versus vehicle (ANOVA p<0.05, T-Test p=0.04) and untreated baseline (ANOVA p<0.05)) was “significantly reduced”, the “percentage of relative AT180-TAU area in the hippocampus” value (human TAU441; 1.2 mg, versus vehicle (T-Test p=0.04)) was “reduced” and the “percentage of relative TAU area in the Amygdala (AT180), versus vehicle” value (human TAU441; ANOVA p<0.05, T-Test p=0.0045) was “significantly reduced percentage of relative HT7-TAU area”. For the same molecule, the “TAU load and TAU positive cells in the amygdala and neuronal layer of the hippocampal CA1 region” value (human TAU441; AT180 and HT7 immunoreactivity) was “visibly reduced TAU load as well as TAU positive cells”, the “percentage of relative HT7-TAU area in the Amygdala” value (human TAU441; versus untreated baseline (ANOVA p<0.01) and vehicle (ANOVA p<0.05, T-test p=0.0018)) was “significantly reduced percentage of relative HT7-TAU area” and the “basal proportion of fluorescent cells (ROS)” value [1] was “had no effect on the basal proportion of fluorescent cells”. The “phosphatase activity of PP1” value (rabbit PP1) was “did not affect the phosphatase activity of PP1”, the “GSK-3β phosphorylation at Ser9, time course” value (GSK-3β; 500 μM, 0 to 6 h) was “marked reduction in phosphorylation, which was maximal at 1 h and 3 h, and returned towards basal levels at the 6 h timepoint” and the “reduction of GSK-3β phosphorylation levels” value (GSK-3β; densitometry, sodium selenate 500 μM 3 h, LY294002 50 μM 1 h) was “over 20%”. The “Open Field activity parameters (activity, hyperactivity, rearing behaviour)” value ([2]; 1.2 mg per 100 mL drinking water, 12 weeks) was “uninfluenced”, the “finding the platform in the Morris Water Maze versus three months younger baseline group” value ([2]; day 1) was “faster” and the “finding the platform in the Morris Water Maze versus vehicle” value ([2]; day 1, 2 and 3, p≦0.01) was “faster”. The “thigmotaxis: abidance in the centre of the Open Field box, turn 1” value ([2]; drinking water, 1.5 months after treatment start, versus vehicle, T-test p=0.019) was “significant higher abidance in the centre of the Open Field box”, the “curiosity behaviour (Nose poke)” value ([2]; drinking water, 12 weeks) was “remained unchanged” and the “motor performance (Rota Rod)” value ([2]; drinking water, 12 weeks) was “remained unchanged”. The “negative side effects and premature deaths” value ([2]; drinking water, 12 weeks) was “did not lead to any negative side effects or caused any premature deaths”, the “thigmotactic behaviour, turn 2” value ([2]; drinking water, end of treatment) was “normalized to the level of the vehicle controls” and the “phosphatase activity of immunoprecipitated PP2A (general intracellular pool)” value (PP2A) was “had no effect”.
